From ChEMBL document CHEMBL3885881, “DrugMatrix”

Species: Rattus norvegicus
Assay: DrugMatrix - Regimen: Daily Repeat
Assay type: toxicity, organism-based, Sprague-Dawley
Set-up: regimen Daily Repeat, gender Male, age 6-8 weeks
Details: in vivo, po, route oral GAVAGE, vehicle 100 % WATER; for ABSOLUTE BASOPHIL / ABSOLUTE EOSINOPHIL / ABSOLUTE LYMPHOCYTE / ABSOLUTE MONOCYTE / ABSOLUTE SEGMENTED NEUTROPHIL / BASOPHIL / EOSINOPHIL / ERYTHROCYTE COUNT / HEMATOCRIT / HEMOGLOBIN / LEUKOCYTE COUNT / LYMPHOCYTE / MEAN CORPUSCULAR HEMOGLOBIN / MEAN CORPUSCULAR HEMOGLOBIN CONCENTRATION / MEAN CORPUSCULAR VOLUME / MONOCYTE / NEUTROPHIL / NUCLEATED RED BLOOD CELLS / PLATELET COUNT: tissue Blood; for ALANINE AMINOTRANSFERASE / ALBUMIN / ALKALINE PHOSPHATASE / ASPARTATE AMINOTRANSFERASE / BLOOD UREA NITROGEN / CARBON DIOXIDE / CHLORIDE / CHOLESTEROL / CREATINE PHOSPHOKINASE / CREATININE / GLUCOSE / LACTATE DEHYDROGENASE / LIPASE / PHOSPHORUS / POTASSIUM / SODIUM / TOTAL BILIRUBIN / TOTAL PROTEIN / URIC ACID: tissue Plasma
[1] = 10 mg/kg, 120 h, dose level Low, time 5 day
[2] = 230 mg/kg, 72 h, dose level High, time 3 day
[3] = 230 mg/kg, 120 h, dose level High, time 5 day

CCN(CC)CC#CCOC(=O)C(O)(c1ccccc1)C1CCCCC1 (centres undefined) [OXYBUTYNIN]
ABSOLUTE BASOPHIL [1]: 0 CELLS/uL | ABSOLUTE EOSINOPHIL [1]: 0 CELLS/uL | ABSOLUTE LYMPHOCYTE [1]: 12363 CELLS/uL | ABSOLUTE MONOCYTE [1]: 41 CELLS/uL | ABSOLUTE SEGMENTED NEUTROPHIL [1]: 1896 CELLS/uL | BASOPHIL [1]: 0% | EOSINOPHIL [1]: 0% | ERYTHROCYTE COUNT [1]: 5.64 x10E6/uL | HEMATOCRIT [1]: 34.63% | HEMOGLOBIN [1]: 13.8 G/DL | LEUKOCYTE COUNT [1]: 14.3 x10E3/uL | LYMPHOCYTE [1]: 86.33% | MEAN CORPUSCULAR HEMOGLOBIN [1]: 24.47 pg | MEAN CORPUSCULAR HEMOGLOBIN CONCENTRATION [1]: 39.83 G/DL | MEAN CORPUSCULAR VOLUME [1]: 61.4 fL | MONOCYTE [1]: 0.33% | NEUTROPHIL [1]: 13.33% | NUCLEATED RED BLOOD CELLS [1]: 0 /100WBC | PLATELET COUNT [1]: 1196.33 x10E3/uL | ALANINE AMINOTRANSFERASE [1]: 57 u/L | ALBUMIN [1]: 4.07 G/DL | ALKALINE PHOSPHATASE [1]: 391.67 u/L | ASPARTATE AMINOTRANSFERASE [1]: 79 u/L | BLOOD UREA NITROGEN [1]: 17.67 mg/dL | CARBON DIOXIDE [1]: 27 mmol/L | CHLORIDE [1]: 99.67 MEQ/L | CHOLESTEROL [1]: 67 mg/dL | CREATINE PHOSPHOKINASE [1]: 306.33 u/L | CREATININE [1]: 0.2 mg/dL | GLUCOSE [1]: 152.33 mg/dL | LACTATE DEHYDROGENASE [1]: 146.67 u/L | LIPASE [1]: 9 u/L | PHOSPHORUS [1]: 11.87 mg/dL | POTASSIUM [1]: 6.33 MEQ/L | SODIUM [1]: 141.53 MEQ/L | TOTAL BILIRUBIN [1]: 0.23 mg/dL | TOTAL PROTEIN [1]: 5.87 G/DL | URIC ACID [1]: 1.93 mg/dL | ABSOLUTE BASOPHIL [2]: 0 CELLS/uL | ABSOLUTE EOSINOPHIL [2]: 99.33 CELLS/uL | ABSOLUTE LYMPHOCYTE [2]: 11911 CELLS/uL | ABSOLUTE MONOCYTE [2]: 110.67 CELLS/uL | ABSOLUTE SEGMENTED NEUTROPHIL [2]: 1845.67 CELLS/uL | BASOPHIL [2]: 0% | EOSINOPHIL [2]: 0.67% | ERYTHROCYTE COUNT [2]: 6.5 x10E6/uL | HEMATOCRIT [2]: 39.53% | HEMOGLOBIN [2]: 15.4 G/DL | LEUKOCYTE COUNT [2]: 13.97 x10E3/uL | LYMPHOCYTE [2]: 85.67% | MEAN CORPUSCULAR HEMOGLOBIN [2]: 23.7 pg | MEAN CORPUSCULAR HEMOGLOBIN CONCENTRATION [2]: 38.93 G/DL | MEAN CORPUSCULAR VOLUME [2]: 60.77 fL | MONOCYTE [2]: 0.67% | NEUTROPHIL [2]: 13% | NUCLEATED RED BLOOD CELLS [2]: 0 /100WBC | PLATELET COUNT [2]: 1396.33 x10E3/uL | ALANINE AMINOTRANSFERASE [2]: 51.33 u/L | ALBUMIN [2]: 4.33 G/DL | ALKALINE PHOSPHATASE [2]: 293.33 u/L | ASPARTATE AMINOTRANSFERASE [2]: 83.33 u/L | BLOOD UREA NITROGEN [2]: 16 mg/dL | CARBON DIOXIDE [2]: 29.67 mmol/L | CHLORIDE [2]: 98 MEQ/L | CHOLESTEROL [2]: 57.33 mg/dL | CREATINE PHOSPHOKINASE [2]: 488 u/L | CREATININE [2]: 0.18 mg/dL | GLUCOSE [2]: 140.67 mg/dL | LACTATE DEHYDROGENASE [2]: 180 u/L | LIPASE [2]: 9.67 u/L | PHOSPHORUS [2]: 11.4 mg/dL | POTASSIUM [2]: 6.48 MEQ/L | SODIUM [2]: 141.17 MEQ/L | TOTAL BILIRUBIN [2]: 0.23 mg/dL | TOTAL PROTEIN [2]: 5.87 G/DL | URIC ACID [2]: 2.47 mg/dL | ABSOLUTE BASOPHIL [3]: 0 CELLS/uL | ABSOLUTE EOSINOPHIL [3]: 0 CELLS/uL | ABSOLUTE LYMPHOCYTE [3]: 14094.33 CELLS/uL | ABSOLUTE MONOCYTE [3]: 0 CELLS/uL | ABSOLUTE SEGMENTED NEUTROPHIL [3]: 1405.67 CELLS/uL | BASOPHIL [3]: 0% | EOSINOPHIL [3]: 0% | ERYTHROCYTE COUNT [3]: 6.31 x10E6/uL | HEMATOCRIT [3]: 37.53% | HEMOGLOBIN [3]: 15.13 G/DL | LEUKOCYTE COUNT [3]: 15.5 x10E3/uL | LYMPHOCYTE [3]: 90.67% | MEAN CORPUSCULAR HEMOGLOBIN [3]: 23.97 pg | MEAN CORPUSCULAR HEMOGLOBIN CONCENTRATION [3]: 40.33 G/DL | MEAN CORPUSCULAR VOLUME [3]: 59.43 fL | MONOCYTE [3]: 0% | NEUTROPHIL [3]: 9.33% | NUCLEATED RED BLOOD CELLS [3]: 0 /100WBC | PLATELET COUNT [3]: 1402.33 x10E3/uL | ALANINE AMINOTRANSFERASE [3]: 64.67 u/L | ALBUMIN [3]: 4.33 G/DL | ALKALINE PHOSPHATASE [3]: 412.33 u/L | ASPARTATE AMINOTRANSFERASE [3]: 87 u/L | BLOOD UREA NITROGEN [3]: 15.67 mg/dL | CARBON DIOXIDE [3]: 26.67 mmol/L | CHLORIDE [3]: 100.33 MEQ/L | CHOLESTEROL [3]: 59.67 mg/dL | CREATINE PHOSPHOKINASE [3]: 224 u/L | CREATININE [3]: 0.17 mg/dL | GLUCOSE [3]: 140.33 mg/dL | LACTATE DEHYDROGENASE [3]: 208.33 u/L | LIPASE [3]: 9.33 u/L | PHOSPHORUS [3]: 10 mg/dL | POTASSIUM [3]: 6.76 MEQ/L | SODIUM [3]: 143.4 MEQ/L | TOTAL BILIRUBIN [3]: 0.2 mg/dL | TOTAL PROTEIN [3]: 5.9 G/DL | URIC ACID [3]: 2.23 mg/dL
